Test results taken from patent US8354436B2 (4SC Discovery GmbH, priority 2011, dated 2013).
Like-named read-outs stand apart in the source and are kept apart here. Values belong to the compound of their own block, whether it stands above or below them.

What was measured:
Assay type in all cases: cell-based
Conditions in all cases: 48 hours
IL-17FF = IL-17FF production by PHA-stimulated human PBMC (human IL-17F ELI-Pair)
In short: (§1)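 Healthy-donor PBMC (1×10^5 cells/well) activated with 2 μg/ml PHA and incubated with compounds for 48 h. Supernatant IL-17AA/AF read by Luminex BioPlex, IL-17AA, IL-17FF and IFN-γ by ELISA. Screening at 10, 1, 0.1 and 0.01 μM; IC50 from semilogarithmic titrations.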

IFN-γ = IFN-γ production by PHA-stimulated human PBMC (OptEIA human IFN-g ELISA)
In short: as §1

[1] = test system: PBMC from healthy human donors; assay: T cell proliferation assay (PHA-stimulated human PBMC, BrdU ELISA)
In short: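 Proliferation was quantified by BrdU ELISA 48 hours after starting culture of 1×10⁵ human PBMC per well with test compound and 2 μg/ml phytohaemagglutinin. Cells came from healthy donors via Ficoll separation and were kept in RPMI1640 with 10% dialysed heat-inactivated FCS.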

[2] = PHA-stimulated human PBMC, column B, read-out: IC50 (IL-17FF)
[3] = PHA-stimulated human PBMC, column C, read-out: IC50 (IFNγ)
[4] = PHA-stimulated human PBMC, column D, read-out: IC50 (Tcell proliferation)
[5] = human PBMC, 2 μg/ml PHA, read-out: B: IC50 (IL-17FF)
[6] = human PBMC, 2 μg/ml PHA, read-out: C: IC50 (IFNγ)
[7] = human PBMC, 2 μg/ml PHA, read-out: D: IC50 (Tcell proliferation)

SMILES: Cc1nnc(-c2c(-c3c(F)cccc3Cl)noc2-c2cnn(-c3ccccc3Cl)c2C(F)(F)F)o1 [Example B-18, 2-(3-(2-chloro-6-fluorophenyl)-5-(1-(2-chlorophenyl)-5-(trifluoromethyl)-1H-pyrazol-4-yl)isoxazol-4-yl)-5-methyl-1,3,4-oxadiazole]
IC50 (IL-17FF; [5]): 1 to 10 µM
IC50 (IFN-γ; [6]): 1 to 10 µM
IC50 [1, 7]: 1 to 10 µM

SMILES: NNC(=O)c1c(-c2c(F)cccc2Cl)noc1-c1cnn(-c2cccc(F)c2)c1C(F)(F)F [Example I-133, 3-(2-chloro-6-fluorophenyl)-5-(1-(3-fluorophenyl)-5-(trifluoromethyl)-1H-pyrazol-4-yl)isoxazole-4-carbohydrazide]
IC50 (IL-17FF; [2]): 1 to 10 µM
IC50 (IFN-γ; [3]): 1 to 10 µM
IC50 [1, 4]: 1 to 10 µM

SMILES: CON(C)C(=O)c1c(-c2ccccc2F)noc1-c1cnn(-c2cccc(F)c2)c1C(F)(F)F [Example I-94, 3-(2-fluorophenyl)-5-(1-(3-fluorophenyl)-5-(trifluoromethyl)-1H-pyrazol-4-yl)-N-methoxy-N-methylisoxazole-4-carboxamide]
IC50 (IL-17FF; [2]): 1 to 10 µM
IC50 (IFN-γ; [3]): 1 to 10 µM
IC50 [1, 4]: 1 to 10 µM

SMILES: Fc1cccc(Cl)c1-c1noc(-c2cnn(-c3cccc(Cl)c3)c2C(F)(F)F)c1-c1cnco1 [Example 8, 3-(2-chloro-6-fluorophenyl)-5-(1-(3-chlorophenyl)-5-(trifluoromethyl)-1H-pyrazol-4-yl)-4-(oxazol-5-yl)isoxazole]
IC50 (IL-17FF; [5]): < 0.01 µM
IC50 (IFN-γ; [6]): < 0.01 µM
IC50 [1, 7]: < 0.01 µM

SMILES: Fc1cccc(Cl)c1-c1noc(-c2cnn(-c3cccc(Cl)c3)c2C(F)(F)F)c1Br [Example I-140, 4-bromo-3-(2-chloro-6-fluorophenyl)-5-(1-(3-chlorophenyl)-5-(trifluoromethyl)-1H-pyrazol-4-yl)isoxazole]
IC50 (IL-17FF; [2]): < 0.01 µM
IC50 (IFN-γ; [3]): < 0.01 µM
IC50 [1, 4]: 0.01 to 0.1 µM

SMILES: COC(=O)c1c(-c2ccccc2)noc1-c1cnn(-c2ccccc2F)c1C(F)(F)F [Example I-61, methyl 5-(1-(2-fluorophenyl)-5-(trifluoromethyl)-1H-pyrazol-4-yl)-3-phenylisoxazole-4-carboxylate]
IC50 (IL-17FF; [2]): 1 to 10 µM
IC50 (IFN-γ; [3]): 1 to 10 µM
IC50 [1, 4]: 1 to 10 µM

SMILES: CCOC(=O)c1c(-c2onc(-c3c(F)cccc3Cl)c2C(=O)OC)cnn1-c1ccc(Cl)cc1Cl [Example I-6, methyl 3-(2-chloro-6-fluorophenyl)-5-(1-(2,4-dichlorophenyl)-5-(ethoxycarbonyl)-1H-pyrazol-4-yl)isoxazole-4-carboxylate]
IC50 (IL-17FF; [2]): 1 to 10 µM
IC50 (IFN-γ; [3]): 1 to 10 µM
IC50 [1, 4]: 1 to 10 µM

SMILES: Fc1cccc(-n2ncc(-c3onc(-c4c(F)cccc4Cl)c3-c3ccccc3)c2C(F)(F)F)c1 [Example 14, 3-(2-chloro-6-fluorophenyl)-5-(1-(3-fluorophenyl)-5-(trifluoromethyl)-1H-pyrazol-4-yl)-4-phenylisoxazole]
IC50 (IL-17FF; [5]): 0.1 to 1 µM
IC50 (IFN-γ; [6]): 0.01 to 0.1 µM
IC50 [1, 7]: 0.1 to 1 µM

SMILES: CCOC(=O)c1c(-c2c(F)cccc2Cl)noc1-c1cnn(-c2ccccc2N)c1C(F)(F)F [IB-98, ethyl 5-(1-(2-aminophenyl)-5-(trifluoromethyl)-1H-pyrazol-4-yl)-3-(2-chloro-6-fluorophenyl)isoxazole-4-carboxylate]
IC50 (IL-17FF; [2]): 0.01 to 0.1 µM
IC50 (IFN-γ; [3]): 0.01 to 0.1 µM
IC50 [1, 4]: 0.01 to 0.1 µM

SMILES: COC(=O)c1c(-c2c(F)cccc2Cl)noc1-c1cnn(-c2ccccn2)c1C(F)(F)F [Example I-84, methyl 3-(2-chloro-6-fluorophenyl)-5-(1-(pyridin-2-yl)-5-(trifluoromethyl)-1H-pyrazol-4-yl)isoxazole-4-carboxylate]
IC50 (IL-17FF; [2]): < 0.01 µM
IC50 (IFN-γ; [3]): < 0.01 µM
IC50 [1, 4]: < 0.01 µM

SMILES: Fc1cccc(Cl)c1-c1noc(-c2cnn(-c3ccncc3)c2C(F)(F)F)c1-c1ccoc1 [Example B-24, 3-(2-chloro-6-fluorophenyl)-4-(furan-3-yl)-5-(1-(pyridin-4-yl)-5-(trifluoromethyl)-1H-pyrazol-4-yl)isoxazole]
IC50 (IL-17FF; [5]): 0.01 to 0.1 µM
IC50 (IFN-γ; [6]): 0.01 to 0.1 µM
IC50 [1, 7]: 0.01 to 0.1 µM

SMILES: COc1csc(-c2c(-c3c(F)cccc3Cl)noc2-c2cnn(-c3cccc(F)c3)c2C(F)(F)F)n1 [Example 10, 3-(2-chloro-6-fluorophenyl)-5-(1-(3-fluorophenyl)-5-(trifluoromethyl)-1H-pyrazol-4-yl)-4-(4-methoxythiazol-2-yl)isoxazole]
IC50 (IL-17FF; [5]): 0.1 to 1 µM
IC50 (IFN-γ; [6]): 0.01 to 0.1 µM
IC50 [1, 7]: 0.01 to 0.1 µM

SMILES: COC(=O)c1c(-c2ccccc2Cl)noc1-c1cnn(-c2cccc(F)c2)c1C(F)(F)F [Example I-95, methyl 3-(2-chlorophenyl)-5-(1-(3-fluorophenyl)-5-(trifluoromethyl)-1H-pyrazol-4-yl)isoxazole-4-carboxylate]
IC50 (IL-17FF; [2]): < 0.01 µM
IC50 (IFN-γ; [3]): < 0.01 µM
IC50 [1, 4]: < 0.01 µM

SMILES: Fc1cccc(-n2ncc(-c3onc(-c4c(F)cccc4Cl)c3-c3ccsc3)c2C(F)(F)F)c1 [Example 16, 3-(2-chloro-6-fluorophenyl)-5-(1-(3-fluorophenyl)-5-(trifluoromethyl)-1H-pyrazol-4-yl)-4-(thiophen-3-yl)isoxazole]
IC50 (IL-17FF; [5]): 0.1 to 1 µM
IC50 (IFN-γ; [6]): < 0.01 µM
IC50 [1, 7]: < 0.01 µM

SMILES: CCOC(=O)c1c(-c2ccc(Cl)cc2Cl)noc1-c1cnn(-c2cccc(F)c2)c1C(F)(F)F [Example I-112, ethyl 3-(2,4-dichlorophenyl)-5-(1-(3-fluorophenyl)-5-(trifluoromethyl)-1H-pyrazol-4-yl)isoxazole-4-carboxylate]
IC50 (IL-17FF; [2]): 0.1 to 1 µM
IC50 (IFN-γ; [3]): 0.01 to 0.1 µM
IC50 [1, 4]: 0.1 to 1 µM

SMILES: Fc1cccc(-n2ncc(-c3onc(-c4c(F)cccc4Cl)c3-c3ccco3)c2C(F)(F)F)c1 [Example 17, 3-(2-chloro-6-fluorophenyl)-5-(1-(3-fluorophenyl)-5-(trifluoromethyl)-1H-pyrazol-4-yl)-4-(furan-2-yl)isoxazole]
IC50 (IL-17FF; [5]): < 0.01 µM
IC50 (IFN-γ; [6]): < 0.01 µM
IC50 [1, 7]: < 0.01 µM

Now from value to compound, other results behind:

IC50 (IL-17FF; [2]): 0.1 to 1 µM
IC50 (IFN-γ; [3]): 1 to 10 µM
SMILES: CCOC(=O)c1c(-c2c(F)cccc2Cl)noc1-c1cnn(-c2cccc(S(N)(=O)=O)c2)c1C(F)(F)F [IB-43, ethyl 3-(2-chloro-6-fluorophenyl)-5-(1-(3-sulfamoylphenyl)-5-(trifluoromethyl)-1H-pyrazol-4-yl)-isoxazole-4-carboxylate]
IC50 [1, 4]: 1 to 10 µM

IC50 (IL-17FF; [2]): 1 to 10 µM
IC50 (IFN-γ; [3]): 1 to 10 µM
SMILES: O=C(c1c(-c2c(F)cccc2Cl)noc1-c1cnn(-c2ccncc2)c1C(F)(F)F)N1CCCO1 [IB-57, (3-(2-chloro-6-fluorophenyl)-5-(1-(pyridin-4-yl)-5-(trifluoromethyl)-1H-pyrazol-4-yl)isoxazol-4-yl)(isoxazolidin-2-yl)methanone]
IC50 [1, 4]: 1 to 10 µM

IC50 (IL-17FF; [2]): 0.1 to 1 µM
IC50 (IFN-γ; [3]): 0.1 to 1 µM
SMILES: CCOC(=O)c1c(-c2ccncc2F)noc1-c1cnn(-c2cccc(Cl)c2)c1C(F)(F)F [IB-4, ethyl 5-(1-(3-chlorophenyl)-5-(trifluoromethyl)-1H-pyrazol-4-yl)-3-(3-fluoropyridin-4-yl)isoxazole-4-carboxylate]
IC50 [1, 4]: 1 to 10 µM

IC50 (IL-17FF; [2]): < 0.01 µM
IC50 (IFN-γ; [3]): < 0.01 µM
SMILES: CCOC(=O)c1c(-c2c(F)cccc2Cl)noc1-c1cnn(-c2cccnc2)c1C(F)(F)F [IB-37, ethyl 3-(2-chloro-6-fluorophenyl)-5-(1-(pyridin-3-yl)-5-(trifluoromethyl)-1H-pyrazol-4-yl)-isoxazole-4-carboxylate]
IC50 [1, 4]: < 0.01 µM

IC50 (IL-17FF; [2]): < 0.01 µM
IC50 (IFN-γ; [3]): < 0.01 µM
SMILES: CCOC(=O)c1c(-c2c(F)cccc2Cl)noc1-c1cnn(-c2cccc(C#N)c2)c1C(F)(F)F [IB-32, ethyl 3-(2-chloro-6-fluorophenyl)-5-(1-(3-cyanophenyl)-5-(trifluoromethyl)-1H-pyrazol-4-yl)isoxazole-4-carboxylate]
IC50 [1, 4]: 0.01 to 0.1 µM

IC50 (IL-17FF; [2]): < 0.01 µM
IC50 (IFN-γ; [3]): < 0.01 µM
SMILES: CCOC(=O)c1c(-c2ccccc2Cl)noc1-c1cnn(-c2cccc(Cl)c2)c1C(F)(F)F [IB-41, ethyl 3-(2-chlorophenyl)-5-(1-(3-chlorophenyl)-5-(trifluoromethyl)-1H-pyrazol-4-yl)-isoxazole-4-carboxylate]
IC50 [1, 4]: 0.01 to 0.1 µM

IC50 (IL-17FF; [2]): 0.01 to 0.1 µM
IC50 (IFN-γ; [3]): 0.1 to 1 µM
SMILES: CCOC(=O)c1c(-c2c(Cl)cncc2Cl)noc1-c1cnn(-c2cccnc2)c1C(F)(F)F [IB-12, ethyl 3-(3,5-dichloropyridin-4-yl)-5-(1-(pyridin-3-yl)-5-(trifluoromethyl)-1H-pyrazol-4-yl)isoxazole-4-carboxylate]
IC50 [1, 4]: 0.1 to 1 µM

IC50 (IL-17FF; [2]): 1 to 10 µM
IC50 (IFN-γ; [3]): 0.1 to 1 µM
SMILES: CCOC(=O)c1c(-c2c(Cl)cncc2Cl)noc1-c1cnn(-c2cccc(Cl)c2)c1C(F)(F)F [IB-7, ethyl 5-(1-(3-chlorophenyl)-5-(trifluoromethyl)-1H-pyrazol-4-yl)-3-(3,5-dichloropyridin-4-yl)isoxazole-4-carboxylate]
IC50 [1, 4]: 1 to 10 µM

IC50 (IL-17FF; [2]): 0.01 to 0.1 µM
IC50 (IFN-γ; [3]): 0.01 to 0.1 µM
SMILES: CC(C)OC(=O)c1c(-c2c(F)cccc2Cl)noc1-c1cnn(-c2ccncc2)c1C(F)(F)F [IB-82, isopropyl 3-(2-chloro-6-fluorophenyl)-5-(1-(pyridin-4-yl)-5-(trifluoromethyl)-1H-pyrazol-4-yl)isoxazole-4-carboxylate]
IC50 [1, 4]: 0.01 to 0.1 µM

IC50 (IL-17FF; [2]): 0.01 to 0.1 µM
IC50 (IFN-γ; [3]): 0.1 to 1 µM
SMILES: CC(=O)Nc1cccc(-n2ncc(-c3onc(-c4c(F)cccc4Cl)c3C(=O)OC(C)C)c2C(F)(F)F)c1 [IB-78, isopropyl 5-(1-(3-acetamidophenyl)-5-(trifluoromethyl)-1H-pyrazol-4-yl)-3-(2-chloro-6-fluorophenyl)isoxazole-4-carboxylate]
IC50 [1, 4]: 0.1 to 1 µM
